Values joined by “and” are separate entries in the source; they are usually repeats but may differ in a detail not shown here. Equal values may be shown once. Read-outs that look alike come from different tables or passages of the source.
Legend:
lupus = experiment: SLE (lupus) model: proteinuria scores; type: in vivo, MRL/MpJ-Faslpr mice; conditions: for End proteinuria score ± SEM: end of study (Week 19)
Experimental: Female MRL/MpJ-Faslpr mice (The Jackson Laboratory) were used to assess the efficacy of Compound A in treating lupus. Starting when animals were 10 weeks of age, protein concentration in urine was measured using urine dipsticks.
At the start of the study, each group in the study had two animals that were 9 weeks old, and all others were 10 weeks old. Dosing of all animals with the test compounds began when the older animals were 11 weeks old. […] […] Dosing was at a consistent time each dosing day throughout the study.
Compound A may be formulated as illustrated in Experimental Method A (see Table 2E.). […] A stock solution of Compound A in DMSO (stock solution concentration of Compound A of 40 mg/mL) was prepared and aliquots for weekly preparations were frozen at −20° C. On each preparation day, a stock solution aliquot was thawed and diluted with other vehicle components to the desired concentration. Formulated Compound A and vehicle were at room temperature for dosing.
The study began when the older animals were 11 weeks old, and concluded when the older animals were 19 weeks old. Body weight was recorded once a week, with the exception of two weight measurements taken the first week of the study (when the older animals were 11 weeks old). Proteinuria was measured in the urine of animals with urine dipsticks once a week, starting when the older animals were 10 weeks old. […] Blood samples were taken retro-orbitally at the start of the study to establish a baseline (15 animals, 3 per group), and when the older animals were 16 weeks (all animals) and when animals were 19 weeks (all animals) at the conclusion of the study. Blood urea nitrogen (BUN) was measured in all animals at study termination in blood samples. After blood collection, animals were euthanized, perfused with PBS, and the left kidneys were collected and weighed and fixed in 10% buffered formalin. Left kidneys were then processed to a formalin-fixed, paraffin-embedded (FFPE) block, and histology was analyzed in Periodic Acid-Schiff-stained sections (1 section per slide), using the criteria described in Alperovich et al., Lupus, 16:18-24 (2007). Right kidneys were weighed and snap-frozen at −80° C. Spleens were also collected and weighed. SLE in animals treated with a BET inhibitor and vehicle.

IL-22 = IL-22 release from activated human PBMCs (ELISA); type: cell-based; conditions: for Percent Inhibition Relative to Control (IL-22): Donors 1-6, two values per donor; for IC50: Homo sapiens, PBMC
Experimental: Human PBMCs used to analyze inhibition of CXCL10 were collected from 8 donors, PBMCs used to analyze inhibition of IL-17A were collected from 7 donors, and PBMCs used to analyze inhibition of IL-22 were collected from 6 donors. Compounds were serially diluted in 10 mM DMSO and further diluted in assay media to 100× the required final concentration, of which 2 μL was added to the specified well. […] The cell culture supernatant was collected and levels of IL-17A and IL-22 in the supernatant were assessed by ELISA (Invitrogen).

Structure (SMILES): Cn1cc(-c2ccccc2)c(-c2cn(C)c(=O)c3[nH]c(-c4cnn(C(F)(F)F)c4)cc23)cc1=O [Compound A, 6-methyl-4-(1-methyl-2-oxo-5-phenyl-1,2-dihydropyridin-4-yl)-2-(1-(trifluoromethyl)-1H-pyrazol-4-yl)-1,6-dihydro-7H-pyrrolo[2,3-c]pyridin-7-one]
- Proteinuria levels, lower than vehicle-treated group (lupus; 10 mg/kg, Week 19): about 74.8%
- Proteinuria levels (lupus; 1, 3, 10 mg/kg): reduced proteinuria levels in a dose-dependent manner
- Mean proteinuria score (lupus; Compound A 1 mg/kg PO QD, Week 10): 1.96
- Mean proteinuria score (lupus; Compound A 1 mg/kg PO QD, Week 11): 1.96 +
- Mean proteinuria score (lupus; Compound A 1 mg/kg PO QD, Week 12): 2.29
- Mean proteinuria score (lupus; Compound A 1 mg/kg PO QD, Week 13): 2.57
- Mean proteinuria score (lupus; Compound A 1 mg/kg PO QD, Week 14): 2.79
- Mean proteinuria score (lupus; Compound A 1 mg/kg PO QD, Week 15): 3.07
- Mean proteinuria score (lupus; Compound A 1 mg/kg PO QD, Week 16): 2.82
- Mean proteinuria score (lupus; Compound A 1 mg/kg PO QD, Week 17): 3.07
- Mean proteinuria score (lupus; Compound A 1 mg/kg PO QD, Week 18): 3.11±
- Mean proteinuria score (lupus; Compound A 1 mg/kg PO QD, Week 19): 3.36
- End proteinuria score ± SEM (lupus; Compound A 1 mg/kg PO QD): 3.36 ± 0.19
- Mean proteinuria score (lupus; Compound A 3 mg/kg PO QD, Week 10): 1.96
- Mean proteinuria score (lupus; Compound A 3 mg/kg PO QD, Week 11): 1.96
- Mean proteinuria score (lupus; Compound A 3 mg/kg PO QD, Week 12): 2.04
- Mean proteinuria score (lupus; Compound A 3 mg/kg PO QD, Week 13): 2.50
- Mean proteinuria score (lupus; Compound A 3 mg/kg PO QD, Week 14): 2.46
- Mean proteinuria score (lupus; Compound A 3 mg/kg PO QD, Week 15): 2.85
- Mean proteinuria score (lupus; Compound A 3 mg/kg PO QD, Week 16): 2.65
- Mean proteinuria score (lupus; Compound A 3 mg/kg PO QD, Week 17): 2.77
- Mean proteinuria score (lupus; Compound A 3 mg/kg PO QD, Week 18): 2.73
- Mean proteinuria score (lupus; Compound A 3 mg/kg PO QD, Week 19): 3.04
- End proteinuria score ± SEM (lupus; Compound A 3 mg/kg PO QD): 3.04 ± 0.24
- Mean proteinuria score (lupus; Compound A 10 mg/kg PO QD, Week 10): 1.96
- Mean proteinuria score (lupus; Compound A 10 mg/kg PO QD, Week 11): 1.96
- Mean proteinuria score (lupus; Compound A 10 mg/kg PO QD, Week 12): 2.04
- Mean proteinuria score (lupus; Compound A 10 mg/kg PO QD, Week 13): 2.21
- Mean proteinuria score (lupus; Compound A 10 mg/kg PO QD, Week 14): 2.07
- Mean proteinuria score (lupus; Compound A 10 mg/kg PO QD, Week 15): 2.43
- Mean proteinuria score (lupus; Compound A 10 mg/kg PO QD, Week 16): 2.32
- Mean proteinuria score (lupus; Compound A 10 mg/kg PO QD, Week 17): 2.32
- Mean proteinuria score (lupus; Compound A 10 mg/kg PO QD, Week 18): 2.00
- Mean proteinuria score (lupus; Compound A 10 mg/kg PO QD, Week 19): 2.32
- End proteinuria score ± SEM (lupus; Compound A 10 mg/kg PO QD): 2.32 ± 0.15
- potency against IL-22 relative to CXCL10 (IL-22): about 17,000 fold
- Biomarker selectivity (IL-22 vs. CXCL 10) (IL-22; Average preliminary biomarker assay): 5178 Fold
- Percent Inhibition Relative to Control (IL-22) (IL-22; Compound Conc. 0.000137174 μM): 36.49% and 20.77% and 20.31% and 15% and 13.22% and 40.62% and 42.44% and −18.99% and 2.10% and 20.38% and 35.83% and 13.68%
- Percent Inhibition Relative to Control (IL-22) (IL-22; Compound Conc. 0.000411523 μM): 27.24% and 13.07% and 35.55% and 45.22% and 56.28% and 11.33* Percent and 49.71% and 35.72% and 28.88% and 47.8% and 62.34% and 36.26%
- Percent Inhibition Relative to Control (IL-22) (IL-22; Compound Conc. 0.001234568 μM): 58.12% and 42.53% and 46.04% and 55.94% and 57.50% and 65.37% and 75.65% and 47.36% and 70.12% and 62.59% and 69.46% and 42.31%
- Percent Inhibition Relative to Control (IL-22) (IL-22; Compound Conc. 0.003703704 μM): 71.96% and 57.94% and 67.89% and 62.44%
- Percent Inhibition Relative to Control (IL-22) (IL-22; Compound Conc. 0.011111111 μM): 52.73% and 45.71% and 72.33% and 61.13% and 48.74% and 54.26% and 71.04% and 74.68% and 76.83% and 75.01% and 72.99% and 61.33%
- Percent Inhibition Relative to Control (IL-22) (IL-22; Compound Conc. 0.033333333 μM): 59.22% and 62.46% and 72.37% and 75.81% and 66.02% and 52.09% and 58.24% and 79.61% and 59.59% and 77.99% and 81.27% and 61.98%
- Percent Inhibition Relative to Control (IL-22) (IL-22; Compound Conc. 0.1 μM): 72.76% and 68.86% and 83.13% and 82.57% and 67.92% and 74.39% and 71.46% and 84.71% and 87.61% and 80.76% and 81.88% and 60.98%
- Percent Inhibition Relative to Control (IL-22) (IL-22; Compound Conc. 1.52416E−05 μM): −4.73% and 3.62% and −2.47% and −6.99% and −5.22% and 11.96% and 21.53% and −30.35% and −52.69% and −14.1* Percent and −16.32* Percent and −0.25%
- Percent Inhibition Relative to Control (IL-22) (IL-22; Compound Conc. 4.57247E−05 μM): −1.30% and −19.44% and 7.09% and −4.72% and −19.37% and 12.73% and 33.63% and −8.80% and 13.17% and 6.1% and 16.75% and −8.17%
- IC50 (IL-22; Average preliminary biomarker assay, read-out: IL-22 IC50 Mean): 0.2 nM
- IC50 (IL-22; Preliminary biomarker assay, Test Subject 1, read-out: IL-22 IC50): 0.2 nM
- IC50 (IL-22; Preliminary biomarker assay, Test Subject 2, read-out: IL-22 IC50): 0.1 nM
- IC50 (IL-22; Preliminary biomarker assay, Test Subject 3, read-out: IL-22 IC50): 0.3 nM
- IC50 (IL-22; ELISA, read-out: Selectivity (IC50) IL-22): 0.214 nM
- IC50, inhibition of release of IL-22 (IL-22; human PBMCs, 72 hours): sub-nanomolar

Reference: patent US20260217701A1, “SELECTIVE BET INHIBITORS AND USES THEREOF” (Tay Therapeutics Limited, priority 2022, published 2026)
